Where two headings read alike, the source gives them in different places.
What was measured:
[1] = parameters: species or system C57BL/6 mice; details: in vivo; for increase in body temperature: C57BL/6, mouse, 2 h; for concentration dependence of body temperature increase: mouse
Procedure: As described above, AMG 517, a representative reference drug as a TRPV1 antagonist, and the compound of Formula 1 of the present invention were tested for the increase in body temperature during transdermal administration.

[2] = Change in body temperature after oral administration (nonclinical); assay type: in vivo, Balb/c mice; details: for change in body temperature, dose dependence: up to 4 hours, AMG 517 0.03, 0.1, 0.3 mg/kg, compound of Formula 1 3, 10, 30 mg/kg
Excerpt: Meanwhile, when the same drug was orally administered, a concentration-dependent increase in body temperature due to TRPV1 antagonism was observed as expected (see FIGS. 2A and 2B).

[3] = rats, oral dose of 3 mg/kg; cited from earlier work
[4] = target: T1, TRPV1 (Rattus norvegicus, UniProt O35433); details: rats; cited from earlier work
T1 construct: host or cells: living rats (endogenous protein)

[5] = oral administration for treatment of dental pain; cited from earlier work

T1 sequence (O35433 whole entry): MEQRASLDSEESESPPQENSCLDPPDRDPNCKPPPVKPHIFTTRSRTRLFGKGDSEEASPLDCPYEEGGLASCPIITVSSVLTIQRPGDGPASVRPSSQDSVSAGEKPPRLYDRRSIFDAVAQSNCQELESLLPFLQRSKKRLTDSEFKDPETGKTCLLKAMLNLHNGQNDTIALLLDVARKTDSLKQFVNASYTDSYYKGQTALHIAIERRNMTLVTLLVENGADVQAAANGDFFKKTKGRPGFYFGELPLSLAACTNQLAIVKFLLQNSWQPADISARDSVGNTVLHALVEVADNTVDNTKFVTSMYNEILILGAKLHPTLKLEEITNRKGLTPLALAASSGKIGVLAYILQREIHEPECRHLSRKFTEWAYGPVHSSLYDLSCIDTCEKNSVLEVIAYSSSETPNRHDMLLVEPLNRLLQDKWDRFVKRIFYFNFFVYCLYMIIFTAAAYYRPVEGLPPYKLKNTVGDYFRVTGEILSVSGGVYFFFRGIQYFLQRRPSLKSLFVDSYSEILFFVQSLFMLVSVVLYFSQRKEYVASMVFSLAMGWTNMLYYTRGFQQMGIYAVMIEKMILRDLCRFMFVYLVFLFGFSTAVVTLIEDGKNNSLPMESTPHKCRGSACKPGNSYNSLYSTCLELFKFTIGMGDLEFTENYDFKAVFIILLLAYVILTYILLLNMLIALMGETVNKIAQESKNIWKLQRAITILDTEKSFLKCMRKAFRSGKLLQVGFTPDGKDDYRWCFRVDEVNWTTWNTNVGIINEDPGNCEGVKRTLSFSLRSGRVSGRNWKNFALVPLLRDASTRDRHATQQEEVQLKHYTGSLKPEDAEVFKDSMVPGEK

increase in body temperature [1]	change in body temperature at lowest dose ([2]; 0.03 mg/kg)	Compound	concentration dependence of body temperature increase [1]	change in body temperature, dose dependence [2]	increase in body temperature [3]	effective concentration to maximize analgesic efficacy [4]	body temperature raised in human [5]	hyperthermia side effect [5]
~1.59 °C	significantly increased body temperature	CC(=O)Nc1nc2c(Oc3cc(-c4ccc(C(F)(F)F)cc4)ncn3)cccc2s1 [AMG 517]	significant concentration-dependent increase in body temperature	increased body temperature in a dose—dependent manner	about 1.3 °C	less than 0.3 mg/kg	up to 40 °C	concentration-dependent side effect of hyperthermia
~0.84 °C	–	CCCc1nc(C(F)(F)F)ccc1/C=C/C(=O)N[C@H](C)c1cc(F)c(NS(C)(=O)=O)c(F)c1 [compound of Formula 1]	no concentration dependence was observed	increased body temperature in a dose—dependent manner	–	–	–	–

Source: patent US11382900B2, “Composition for preventing or treating sleep disorders” (AMOREPACIFIC CORPORATION, priority 2017, dated 2022)
